Assay results: patent EP0347027B1, “Phenylpyridone derivatives,processes for their preparation and pharmaceutical compositions containing them” (SMITH KLINE & FRENCH LABORATORIES LIMITED, priority 1988, dated 1989)

Assays:
[1] = system: bronchoconstrictor response; experiment: Anti-allergic activity (ovalbumen challenge in sensitised animals); type: in vivo, Duncan Hartley guinea-pigs; details: Cavia porcellus, iv, 0.5 h; dose of 11 µmol/kg i.v.; ovalbumen 1mg.kg⁻¹ i.v. challenge 30 minutes following drug administration; sensitised guinea-pigs; read-out: inhibition of the control bronchoconstrictor response
Protocol: Male Duncan Hartley guinea-pigs (250-300 g) were sensitised to ovalbumen by i.p. injection of 2 ml of 50mg.ml⁻¹ i.p. and 0.2 ml s.c. Three weeks later they were anaesthetised with 60mg.kg⁻¹ sodium pentabarbitone. The trachea was cannulated and the animal respired at a rate of 40 breaths per minute and at an initial tracheal inflation pressure of 16 mmHg. Tracheal inflation pressure was measured by a transducer connected to a side arm of the respiration circuit. The carotid artery was cannulated for the measurement of blood pressure and the signal was used to trigger an instantaneous rate meter. A jugular vein was cannulated for the administration of drug and allergen. After surgery the animals were allowed to stabilise and the drug was administered i.v. as a bolus. Following this, ovalbumen 1mg.kg⁻¹ was injected i.v. as the antigen challenge either 2, 15 or 30 minutes following drug treatment and the peak bronchoconstrictor response recorded. For the control group ovalbumen only was given. One ovalbumen challenge per guinea-pig was used and n = 6 for each time point. The percentage increase in tracheal inflation pressure was calculated.

hindquarter blood flow = experiment: Vasodilatation in vivo (perfused hindquarters at constant pressure); details: Rattus norvegicus, iv; dose producing a 50% increase in hindquarter blood flow; bolus i.v.; anaesthetised male Wistar rats; read-out: EDHQ₅₀
Protocol: Male Wistar rats (300 g) were anaesthetised with a sodium 5-ethyl-5-(1-methylpropyl)-2-thiobarbiturate/sodium pentobarbitone mixture i.p. (62.5 and 22.5 mg/kg respectively). The trachea was cannulated and the rats breathed spontaneously air enriched with O₂ (5 ml/min). Blood pressure was recorded from a carotid artery and a jugular vein was cannulated for the administration of compounds. The temperature of the animal was maintained at 37°C by the use of an electric blanket. […] The perfusion circuit was primed with 5% bovine serum albumin dissolved in 0.9% sodium chloride solution, pH adjusted to 7.4. Initially the pump rate was set between 10 and 15 ml/min to match the hind quarter perfusion pressure to that of the systemic circulation. Once set, the pressure remained unaltered for the rest of the experiment. A change in the speed of the pump (equivalent to hindquarter blood flow) was used to assess the changes in hindquarter vascular resistance.
All compounds were administered as a bolus i.v. and from the dose response curves the dose required to produce a 50% increase in hindquarter blood flow (EDHQ₅₀) was determined in µmoles/kg.

Compound | inhibition at 11 µmol/kg [1] [%] | ED50 (hindquarter blood flow) [µmol/kg]
CCCOc1ccccc1-c1ccc(C(N)=O)c(=O)[nH]1 [Example 2, 6-(2-Propoxyphenyl)-1,2-dihydro-2-oxopyridine-3-carboxamide] | 44 | 14
CCCOc1ccccc1-c1ccc(C#N)c(=O)[nH]1 [Example 1, 3-Cyano-6-(2-propoxyphenyl)-2(1H)-pyridinone] |  | 11.5
